According to patent publication US20210302459A1, “Biosensor Storage Methods” (Queen's University at Kingston, priority 2020, published 2021):

Experiments:
Type in all cases: binding
[1] = target: T1, TLR2/6 biosensor (TLR2 and TLR6 proteins immobilized on gold electrode) (Mus musculus, UniProt Q9EPW9+Q9QUN7); assay: Electrochemical impedance response (ΔRct %) of freshly prepared TLR2/6 biosensors to isolated PAMPs
T1 construct: Fc (fusion partner, Fc chimera); purchased R&D Systems Inc. 1530-TR-050 (TLR2); 1533-TR-050 (TLR6)
T1 sequence (Q9QUN7 with tags, fused parts or gaps limits assumed): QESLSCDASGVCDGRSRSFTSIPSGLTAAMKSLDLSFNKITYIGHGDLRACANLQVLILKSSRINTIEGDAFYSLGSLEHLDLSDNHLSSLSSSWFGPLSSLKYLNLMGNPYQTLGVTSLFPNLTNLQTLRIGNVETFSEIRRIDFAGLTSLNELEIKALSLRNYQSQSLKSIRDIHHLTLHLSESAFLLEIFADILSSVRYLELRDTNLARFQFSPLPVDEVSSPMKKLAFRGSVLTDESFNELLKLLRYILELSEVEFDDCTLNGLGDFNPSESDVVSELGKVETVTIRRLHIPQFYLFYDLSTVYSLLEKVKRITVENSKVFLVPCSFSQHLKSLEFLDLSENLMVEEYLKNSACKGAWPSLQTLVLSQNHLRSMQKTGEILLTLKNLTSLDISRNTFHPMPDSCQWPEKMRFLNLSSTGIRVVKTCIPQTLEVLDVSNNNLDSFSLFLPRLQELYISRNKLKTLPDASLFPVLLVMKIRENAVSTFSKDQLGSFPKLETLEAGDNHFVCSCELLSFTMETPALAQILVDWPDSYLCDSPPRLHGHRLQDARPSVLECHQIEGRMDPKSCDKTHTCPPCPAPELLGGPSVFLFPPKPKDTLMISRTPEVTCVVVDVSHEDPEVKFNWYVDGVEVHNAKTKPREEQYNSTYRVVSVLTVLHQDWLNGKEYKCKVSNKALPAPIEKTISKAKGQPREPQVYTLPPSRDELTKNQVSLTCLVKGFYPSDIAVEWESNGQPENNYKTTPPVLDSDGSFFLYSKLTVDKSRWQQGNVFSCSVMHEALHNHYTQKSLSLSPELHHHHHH
T1 sequence (Q9EPW9 with tags, fused parts or gaps limits assumed): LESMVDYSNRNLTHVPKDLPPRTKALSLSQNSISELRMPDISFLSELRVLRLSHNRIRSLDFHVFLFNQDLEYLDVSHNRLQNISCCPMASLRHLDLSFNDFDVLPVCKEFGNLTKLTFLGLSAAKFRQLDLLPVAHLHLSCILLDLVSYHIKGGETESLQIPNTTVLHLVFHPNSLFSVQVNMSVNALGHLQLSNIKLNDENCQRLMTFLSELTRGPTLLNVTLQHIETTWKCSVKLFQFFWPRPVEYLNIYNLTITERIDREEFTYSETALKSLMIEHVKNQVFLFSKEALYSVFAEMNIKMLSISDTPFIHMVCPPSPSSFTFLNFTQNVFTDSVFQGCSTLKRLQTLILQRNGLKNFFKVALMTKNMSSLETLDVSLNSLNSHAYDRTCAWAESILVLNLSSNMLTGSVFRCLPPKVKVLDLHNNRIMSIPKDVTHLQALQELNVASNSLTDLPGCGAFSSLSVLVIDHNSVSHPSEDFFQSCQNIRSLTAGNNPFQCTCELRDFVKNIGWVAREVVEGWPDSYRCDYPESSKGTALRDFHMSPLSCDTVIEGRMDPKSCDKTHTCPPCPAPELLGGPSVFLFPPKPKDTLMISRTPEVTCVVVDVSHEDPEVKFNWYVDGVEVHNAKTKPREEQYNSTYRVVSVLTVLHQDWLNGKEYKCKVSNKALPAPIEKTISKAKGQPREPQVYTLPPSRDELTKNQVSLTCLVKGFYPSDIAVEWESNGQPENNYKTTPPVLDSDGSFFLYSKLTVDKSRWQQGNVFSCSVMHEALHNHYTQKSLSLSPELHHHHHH
Procedure: As shown in FIGS. 1A-B, a TLR2/6 biosensor was prepared following the steps as shown. Specifically, TLR biosensors were prepared using DropSens gold screen printed electrode (SPE). 1-lipoic acid n-hydroxysuccinimide ester (LPA, a linker molecule) was synthesized following a published protocol (see Howarth, M., et al., Nat. Methods, 2008, 5, 397-399). LPA solution at a concentration of 2 mM was prepared using ethanol/MQ water (volume ratio of 1:1). A clean plastic petri dish was lined with a filter paper which was dampened with a 1:1 solution of ethanol and MQ. The DropSens SPE was placed on the filter paper and 50 μL of the 2 mM LPA solution was dropped onto the working electrode. The petri dish was sealed with parafilm and placed in a fridge at 277 K for 24 hours. An additional 50 μL of the 2 mM LPA solution was cast onto a working electrode and returned to the fridge for another 24 hours. After a total of 48 hours the SPE was rinsed thoroughly with ethanol and MQ water before blown dry with nitrogen. TLR2 and TLR6 proteins were individually reconstituted into solutions at a concentration of 200 μg/mL using PBS buffer (pH ˜7.4). The TLR2/6 protein mixture was prepared by mixing 100 μL of TLR2 and 100 μL of TLR6 and mixing on a vortex machine for 30 seconds in a 1.5 mL microcentrifuge tube. The SPEs were placed in petri dishes with filter papers dampened with PBS buffer (pH ˜7.4). A small drop of TLR 2/6 mixture (5 μL) was dispensed onto each working electrode and then the petri dishes were sealed with PARAFILM™ and left in the fridge at 277 K for 72 hours. The electrodes were rinsed with MQ water after the immersion and blown dry with nitrogen. An ethanolamine-tris buffer solution was prepared by dissolving 1.2 g of ethanolamine, 0.121 g tris base in 20 mL of MQ water. The pH of the solution was adjusted to 8.4 using concentrated hydrochloric acid. After the step of immobilizing TLR2/6 proteins, electrode surfaces were immersed in ethanolamine solutions for 1 hour to deactivate unreacted ester groups on the LPA monolayer.
All electrochemical measurements were preformed in faraday cages using DRP-CAC adapters for SPEs being measured. Cyclic voltammetry (CV), square wave voltammetry (SWV), and electrochemical impedance spectroscopy (EIS) measurements were completed using CHI6055E potentiostats (CH Instruments of Austin, Tex., USA). […] The experimental EIS curves were evaluated to determine the film resistance using ZSimpWin 2.0 software (available from AMETEK® Scientific Instruments of Berwyn, Pa., USA). […]
(§1) Sensor responses to different concentrations of Pam2CSK4, a gram-positive PAMP, were evaluated. […] Reduction in measured current correlated to the binding of Pam2CSK4 onto the TLR2/6 biosensor. […]

[2] = target: T1, TLR2/6 biosensor (TLR2 and TLR6 proteins immobilized on gold electrode); assay: Response of TLR2/6 biosensors to Pam2CSK4 after 2 weeks storage under different conditions; conditions: for detection response / activity in comparison to control: 50 μM Pam2CSK4; for activity in comparison to control: −33° C.
Procedure: Referring to FIGS. 2A-C, plots are shown that provide detection responses obtained from TLR2/6 biosensors in the presence of Pam2CSK4 with no storage, and with storage under different conditions for 2 weeks (see Example 5 for details). Columns labelled ‘A’ in FIGS. 2A-C correspond to detection responses of fresh (i.e., not stored) TLR2/6 biosensors to different concentrations of Pam2CSK4. Responses of TLR2/TLR6 biosensors stored in PBS buffer at −80° C. (see columns labelled ‘E’ in FIGS. 2A-2C) for two weeks to Pam2CSK4 were equivalent to the responses from freshly prepared biosensors. That is, there was no significant loss of performance under storage condition E (see Table 1).
Biosensors as described herein (e.g., TLR2/6 proteins immobilized onto conductive surfaces) were stored under varying conditions (see Table 1) for two weeks and then challenged by the PAMP (Pam2CSK4). As shown in FIGS. 2A-2C, a comparison was done of the responses from freshly prepared and stored biosensors were compared. Calibration curves including more concentration points are shown in FIGS. 6A-6D, where ΔRCT(%) is a normalized detection signal. ΔRCT(%)=[RCT (after exp.)−RCT (before exp.)]/RCT (before exp.), where “before exp.” refers to before exposure to analyte, and “after exp.” refers to after exposure to the analyte.
Three storage temperatures were selected, 4° C., −33° C., and −80° C. Ionic salt solutions are commonly used to maintain protein folding and stability, thus, to preserve the biosensor during storage, varying buffer solutions were used.
Batch B biosensors were stored in PBS buffer of pH˜7.4 at 4° C.
The storage conditions for Batch C was −33° C. in 50% v/v PBS buffer at pH ˜7.4 and glycerol. The storage conditions for Batch D was −33° C. in 50% v/v Tris buffer pH ˜7.7 and glycerol. […] However, the activity was reduced down to 30% in comparison to control.
The storage conditions for Batch E was −80° C. in PBS buffer at pH ˜7.4.
Batch F biosensors were stored at −80° C. in the absence of any buffer solution.
Batch G biosensors were disposed in a buffer solution that included amino acids. Specifically, Batch G buffer solution included 50 mM L-Arg, 50 mM L-Glu, 1 M NaCl and 200 mM imidazole in 50 mM Tris-HCl (pH˜8.0). The solution surrounded each biosensor in Batch G and they were kept at 4° C.
Different concentrations of Pam2CSK4 were used to trigger the responses. These concentrations were 0.1 μM for FIG. 2A; 1.0 μM for FIG. 2B; and 50 μM for FIG. 2C.

[3] = target: T1, TLR2/6 biosensor (TLR2 and TLR6 proteins immobilized on gold electrode); assay: Cyclic voltammetry peak current of TLR2/6 biosensors after exposure to analyte; conditions: concentration increased 0.1 to 50.0 μM; reduced from 147 μA
Procedure: As shown in FIGS. 1A-B, a TLR2/6 biosensor was prepared following the steps as shown. Specifically, TLR biosensors were prepared using DropSens gold screen printed electrode (SPE). 1-lipoic acid n-hydroxysuccinimide ester (LPA, a linker molecule) was synthesized following a published protocol (see Howarth, M., et al., Nat. Methods, 2008, 5, 397-399). LPA solution at a concentration of 2 mM was prepared using ethanol/MQ water (volume ratio of 1:1). A clean plastic petri dish was lined with a filter paper which was dampened with a 1:1 solution of ethanol and MQ. The DropSens SPE was placed on the filter paper and 50 μL of the 2 mM LPA solution was dropped onto the working electrode. The petri dish was sealed with parafilm and placed in a fridge at 277 K for 24 hours. An additional 50 μL of the 2 mM LPA solution was cast onto a working electrode and returned to the fridge for another 24 hours. […]
All electrochemical measurements were preformed in faraday cages using DRP-CAC adapters for SPEs being measured. […] The experimental EIS curves were evaluated to determine the film resistance using ZSimpWin 2.0 software (available from AMETEK® Scientific Instruments of Berwyn, Pa., USA). […]
as §1

Substance | electrochemical response (ΔRct %) ([1]; 0.1 μM analyte, fresh biosensors, 4 replicates) [%] | electrochemical response (ΔRct %) ([1]; 1 μM analyte, fresh biosensors, 4 replicates) [%] | electrochemical response (ΔRct %) ([1]; largest concentration, FIG. 4 comparison) [%] | detection response ([2]; freshly prepared biosensors (column A, no storage)) [%] | detection response ([2]; storage condition G: 2 weeks, 4° C., amino acid buffer pH ~8.0) [%] | response after storage ([2]; Batch B: 2 weeks, PBS buffer pH ~7.4, 4° C.) | activity in comparison to control ([2]; Batch C: 2 weeks, 50% v/v PBS/glycerol) [%] | activity in comparison to control ([2]; Batch D: 2 weeks, 50% v/v Tris/glycerol) [%] | response after storage versus control biosensor ([2]; Batch E: 2 weeks, −80° C., PBS buffer pH ~7.4, all concentrations) | response after storage ([2]; Batch F: 2 weeks, −80° C., no buffer solution) | peak current (cyclic voltammogram) after exposure [3] [μA] | electrochemical response (ΔRct %) ([1]; LPS from 0.1 to 63.6 μg/ml, any concentration) [%]
Pam2CSK4 | 24±12 | 58±13 | ~160 | 167±29 | 360±24 | no significant responses | 30 | 30 | within error of the control biosensor | lost most of their response | 96 | –
lipopolysaccharide [Salmonella LPS] | – | – | – | – | – | – | – | – | – | – | – | ≤ 40
